Measured values taken from US20100152137A1, “Alkylphospholipids as active agents for prevention of plant pathogens” (KTB-Tumorforschungs GMBH, priority 2006, published 2010).
Where “and” joins values, the source holds several entries; their conditions need not be identical. Equal values may be shown once.

Columns and labels:
[1] = test system: pathogen causing downy mildew of grapevine; test: Outdoor test in the vineyard under practical conditions; type: in vivo, Müller-Thurgau grapevine; settings: HePC 0.2%, no artificial infection, status Jun. 19, 2007
From the text: Currently (vegetation period of 2007), HePC (0.2%) is being tested in an outdoor test. In these experiments, the plants in a commercial vineyard (Müller-Thurgau, age about 15 years) are not artificially infected. For this experiment, 3×6 plants (different locations in the vineyard) were employed. In addition, a corresponding untreated control is observed. […] Thus, to date, it has not been possible to observe infestation of the plants treated with HePC, despite of the currently sticky and humid weather (optimum infection conditions) and the very early start of the vegetation period in this year. In contrast, infestation of the control has already been observed.

Plasmopara viticola [2] = test: Downy mildew control on intact greenhouse plants; type: in vivo, Plasmopara viticola on Vitis vinifera cv. Müller-Thurgau; settings: for II (%) per REP / II (%) per variant: infestation intensity; for RW II IF (%): relation value for infestation frequency vs control; for RW II II (%): relation value for infestation intensity vs control
Protocol: Greenhouse plants of the variety Müller-Thurgau (Vitis vinifera cv. Müller-Thurgau) served as the starting material. At least three plants each in the ten leaf stage were employed per test solution. HePC was applied (sprayed with the application device System Schachtner) in concentrations of 0.01%, 0.05% and 0.1%. In an additional experiment with 0.01% HePC, the same concentration of HePC (0.01%) was additionally applied one week before (2×HePC). After 24 h from the application of the test solutions, the plants were infected with the pathogen causing downy mildew (Plasmopara viticola). Six days after the infection, the sporulation of Plasmopara viticola was induced, and then the infestation intensity was established.
Thus, the percent proportion of the sporulating surface area relative to the entire surface area of each leaf was visually observed. For each substance and concentration, the leaves of at least three plants were evaluated, and the mean value determined. The application of distilled water served as a negative control. The experiment was repeated twice.

Plasmopara viticola [3] = test: Grapevine leaf disk test against downy mildew; type: in vivo, Plasmopara viticola on Vitis vinifera cv. Müller-Thurgau; settings: for Average infestation intensity: five-point scale 1-5, per experiment; for No. of leaf disks at scale point 1 (no sporulation) / No. of leaf disks at scale point 2 / No. of leaf disks at scale point 3 / No. of leaf disks at scale point 4 / No. of leaf disks at scale point 5 (sporulation all over the surface): six days after infection
Protocol: Greenhouse plants of the variety Müller-Thurgau (Vitis vinifera cv. Müller-Thurgau) served as the starting material. Young leaves were sterilized on the surface with 70% (v/v) ethanol. Subsequently, leaf disks of 16 mm in diameter were punched out and placed upside down onto water agar (0.8%) in transparent boxes. One drop (about 60 μl) of an aqueous test solution (concentrations employed, see FIG. 1) was applied 24 h before the infection with the pathogen causing downy mildew (Plasmopara viticola), and the leaf disks were incubated at 25° C. (16 h of white light 300 μmol m^−2 s^−1; 8 h of dark) and >95% relative humidity. After 24 h, the drop was removed and replaced by a drop containing spores of the pathogen (about 50 μl of an aqueous suspension containing 2×10^5 sporangia/mil). The infestation intensity was determined six days after the infection.
The infestation intensity was determined by means of a five-point scale ranging from 1 (no sporulation) to 5 (sporulation all over the surface). For each substance and concentration, 10 leaf disks per experiment were evaluated, and the mean value from at least three independent parallel experiments was determined. Distilled water and phosphite as negative and positive controls, respectively.

Plasmopara viticola [4] = test: Downy mildew control on Gutedel seedlings; type: in vivo, Plasmopara viticola on Gutedel seedlings; settings: for Infestation incidence (%) / Infestation intensity (%): evaluated after 10 days
Protocol: The examinations were performed with seedlings of the variant “Gutedel”, the seedlings having 3-4 leaves and a height of 8-12 cm at the time of application. HePC (0.01 and 0.001%) was applied with a rotary plate automated spraying device (about 1.2 bar spraying pressure) for 20 seconds. For each concentration, 6 plants were treated, which also applied to the positive control (infection, no treatment) and negative control (no infection, no treatment).
After the leaves had dried, the plants were infected/sprayed with Plasmopara viticola (spore suspension (100,000 spores/ml)) and further kept at 21° C. and 100% RH in a cycle of 16 h of day and 8 h of night.
The proportion of leaves infested (incidence) and the intensity of infestation, i.e., the infested proportion of the leaf areas, were evaluated.

[5] = test system: single cell culture of Vitis vinifera cv. Pinot noir; test: pH change (alcalinization) in the medium of a single cell culture of grapevine; type: cell-based
From the text: A response of plant cells to substances that can induce resistance in plants is to open ion channels in the cell membrane. Thereupon, protons flow into the interior of the cell, which causes alcalinization of the medium surrounding the cell. This temporary alcalinization has been measured.
Greenhouse plants of the variety Pinot noir (Vitis vinifera cv. Pinot noir) served as the starting material. A callus culture was started first from young shoots. Thus, the plant parts were cut into pieces about 1-2 cm in size, washed in 70% (v/v) ethanol and sterilized in 3.5% (w/v) NaOCl solution for about 2 min. The sterilized tissue pieces were transferred to solid MS nutrient medium (Murashige, T. and Skoog, F., Physiol. Plant, 18: 100-127 (1962)) and slightly pushed into the agar, so that the cuts came into contact with the medium. The formation of callus tissue occurred at 23° C. in a phytochamber (16 h of white light 300 μmol m^−2 s^−1; 8 h of dark; >95% relative humidity). At the cuts, calluses formed, which were repeatedly transferred to a new medium in a sterile manner after 4-6 weeks.
Starting from strongly growing callus cultures, single cell cultures were started. Thus, cells were passaged under sterile conditions from callus tissue to liquid MS nutrient medium. The cell cultures were grown in a temperature constant room at 23° C. on a rotary shaker (120 rpm). In regular passage cycles of 4 days, the cell cultures were admixed with 40 ml of new liquid MS nutrient medium and distributed in two equal parts of about 40 ml to two 250 ml Erlenmeyer flasks.
For measuring the pH of the medium, 10 ml of a 2 days old cell culture was added to a small rolled rim vial. The rolled rim vial was placed onto a shaker, and a pH electrode was immersed into the cell culture. The electrode was fixed to be constantly washed round by the cell culture. The revolutions per minute of the shaker was 140 rpm. After the measured pH had stabilized, the substance to be tested was added, and the change of pH was continuously recorded with a plotter.

[6] = HePC 0.05%, infestation frequency

Compound: CCCCCCCCCCCCCCCCOP(=O)([O-])OCC[N+](C)(C)C [HePC, hexadecylphosphocholine]
- prevention of pathogen infestation [1]: good effect
- IF (%) per variant (Plasmopara viticola [2]; HePC 0.01% applied once, infestation frequency): 53.4%
- II (%) per REP (Plasmopara viticola [2]; HePC 0.01% applied once): 1.67% and 2.89% and 4.00%
- II (%) per variant (Plasmopara viticola [2]; HePC 0.01% applied once): 2.85%
- RW II IF (%) (Plasmopara viticola [2]; HePC 0.01% applied once): 23.6% and 23.56%
- RW II II (%) (Plasmopara viticola [2]; HePC 0.01% applied once): 73.2% and 73.16%
- II (%) per REP (Plasmopara viticola [2]; HePC 0.01%, 2 x (also applied one week before)): 0.20% and 0.80% and 0.11%
- IF (%) per variant (Plasmopara viticola [2]; HePC 0.01%, 2 x, infestation frequency): 23.7%
- II (%) per variant (Plasmopara viticola [2]; HePC 0.01%, 2 x): 0.37%
- RW II IF (%) (Plasmopara viticola [2]; HePC 0.01%, 2 x): 66.1% and 66.09%
- RW II II (%) (Plasmopara viticola [2]; HePC 0.01%, 2 x): 96.5% and 96.51%
- IF (%) per REP (Plasmopara viticola [2]; [6]): 33.3% and 44.4%
- IF (%) per variant (Plasmopara viticola [2]; [6]): 37.0%
- II (%) per REP (Plasmopara viticola [2]; HePC 0.05%): 2.22% and 1.33% and 0.33%
- II (%) per variant (Plasmopara viticola [2]; HePC 0.05%): 1.30%
- RW II IF (%) (Plasmopara viticola [2]; HePC 0.05%): 47.0% and 47.02%
- RW II II (%) (Plasmopara viticola [2]; HePC 0.05%): 87.8%
- IF (%) per variant (Plasmopara viticola [2]; HePC 0.1%, infestation frequency): 25.0%
- II (%) per REP (Plasmopara viticola [2]; HePC 0.1%): 0.11% and 0.33% and 0.89%
- II (%) per variant (Plasmopara viticola [2]; HePC 0.1%): 0.36%
- RW II IF (%) (Plasmopara viticola [2]; HePC 0.1%): 64.2% and 64.24%
- RW II II (%) (Plasmopara viticola [2]; HePC 0.1%): 96.6%
- Average infestation intensity (Plasmopara viticola [3]; HePC 0.0001%): 5.0 and 2.9
- No. of leaf disks at scale point 1 (no sporulation) (Plasmopara viticola [3]; HePC 0.0001%): 0
- Average infestation intensity (Plasmopara viticola [3]; HePC 0.01%): 1.0
- No. of leaf disks at scale point 1 (no sporulation) (Plasmopara viticola [3]; HePC 0.01%): 9
- No. of leaf disks at scale point 2 (Plasmopara viticola [3]; HePC 0.01%): 0
- No. of leaf disks at scale point 3 (Plasmopara viticola [3]; HePC 0.01%): 0
- No. of leaf disks at scale point 4 (Plasmopara viticola [3]; HePC 0.01%): 0
- No. of leaf disks at scale point 5 (sporulation all over the surface) (Plasmopara viticola [3]; HePC 0.01%): 0
- Average infestation intensity (Plasmopara viticola [3]; HePC 0.1%): 1.0
- No. of leaf disks at scale point 1 (no sporulation) (Plasmopara viticola [3]; HePC 0.1%): 9
- No. of leaf disks at scale point 2 (Plasmopara viticola [3]; HePC 0.1%): 0
- No. of leaf disks at scale point 3 (Plasmopara viticola [3]; HePC 0.1%): 0
- No. of leaf disks at scale point 4 (Plasmopara viticola [3]; HePC 0.1%): 0
- No. of leaf disks at scale point 5 (sporulation all over the surface) (Plasmopara viticola [3]; HePC 0.1%): 0
- infestation increased by a factor (Plasmopara viticola [4]; 0.001% HePC compared with 0.01% HePC): 10
- Infestation incidence (%) (Plasmopara viticola [4]; HePC 0.001%): 43%
- Infestation intensity (%) (Plasmopara viticola [4]; HePC 0.001%): 33.9%
- leaves infested as compared to the positive control (Plasmopara viticola [4]; HePC 0.01%): 25%
- Infestation incidence (%) (Plasmopara viticola [4]; HePC 0.01%): 13%
- Infestation intensity (%) (Plasmopara viticola [4]; HePC 0.01%): 3.6%
- Δ (pH) ([5]; HePC final concentration 0.00025%): 0.03
- Δ (pH) ([5]; HePC final concentration 0.00050%): 0.16
- Δ (pH) ([5]; HePC final concentration 0.00075%): 0.25
- Δ (pH) ([5]; HePC final concentration 0.00100% (w/v)): 0.41
